Among the data in ChEMBL document CHEMBL1148126, “Triterpenoid constituents of Raulinoa echinata” (J Nat Prod, 2002) are LC50 and IC50 values, retold here.

≈ marks a conversion by molar mass, not a printed value.

Data set [1] is described as follows: Toxicity in Artemia salina. In kind it is organism-based. The conditions noted are these: in vivo, read-out: LD50 (the source's name).
The test system of data set [2] is Trypanosoma cruzi. Put plainly: Antitrypanosomal activity against Trypanosoma cruzi Y trypomastigotes. In kind it is functional, organism-based.

For the compound `CNc1ccccc1C(=O)O[C@H]1CC[C@]2(C)[C@H]3CC[C@]45C[C@]4(CC[C@H]5[C@@H]4C[C@H]([C@H](O)C(C)(C)O)O[C@H]4OC)[C@]3(C)[C@H](O)C[C@H]2C1(C)C`, the LC50 in data set [1] was > 100 µg/mL. Also, the IC50 (as a rule, the concentration that gives 50% inhibition) in data set [2] was > 1000 µg/mL.

With `CO[C@H]1O[C@@H]([C@H](O)C(C)(C)OC)C[C@H]1[C@@H]1CC[C@]2(C)C3=CC[C@H]4C(C)(C)C(=O)CC[C@]4(C)[C@H]3CC[C@@]12C`, the LC50 in data set [1] is > 100 µg/mL. Further, the IC50 in data set [2] was 114 µg/mL (≈ 222 µM).

In the case of `CO[C@@H]1O[C@@H]([C@H](O)C(C)(C)OC)C[C@H]1[C@@H]1CC[C@]2(C)C3=CC[C@H]4C(C)(C)C(=O)CC[C@]4(C)[C@H]3CC[C@@]12C`, in data set [1], the LC50 is > 100 µg/mL. Inhibition in data set [2] was half-maximal at 135 µg/mL (≈ 261 µM) (IC50).

Turning to `CNc1ccccc1C(=O)O[C@H]1CC[C@]2(C)[C@H]3CC[C@]45C[C@]4(CC[C@H]5[C@@H]4C[C@H]([C@H](O)C(C)(C)O)OC4O)[C@]3(C)[C@H](O)C[C@H]2C1(C)C` (stereo partly specified), in data set [1], the LC50 was > 100 µg/mL. The IC50 in data set [2] was > 1000 µg/mL.

Turning to `CNc1ccccc1C(=O)O[C@H]1CC[C@]2(C)[C@H]3CC[C@]45C[C@]4(CC[C@H]5[C@@H]4C[C@H]([C@H](O)C(C)(C)O)O[C@@H]4OC)[C@]3(C)[C@H](O)C[C@H]2C1(C)C`, in data set [1], the LC50 is > 100 µg/mL. Also, the IC50 in data set [2] was > 1000 µg/mL.

For `CN(C)c1ccc(C(=C2C=CC(=[N+](C)C)C=C2)c2ccc(N(C)C)cc2)cc1.[Cl-]` [GENTIAN VIOLET], in data set [2], the IC50 came to 7.5 µg/mL.
